Measured values: ChEMBL document CHEMBL1909046, “DrugMatrix in vitro pharmacology data”

Assays:
[1] = target: Substance-P receptor (Homo sapiens, UniProt P25103); format: cell membranes, CHO, Membrane; conditions: cho; also: in other assays of this panel Not Active means under 50% inhibition at 10 µM
[2] = target: T1, C-X-C chemokine receptor type 1 (Homo sapiens, UniProt P25024); also: in other assays of this panel Not Active means under 50% inhibition at 10 µM
T1 sequence (P25024 whole entry): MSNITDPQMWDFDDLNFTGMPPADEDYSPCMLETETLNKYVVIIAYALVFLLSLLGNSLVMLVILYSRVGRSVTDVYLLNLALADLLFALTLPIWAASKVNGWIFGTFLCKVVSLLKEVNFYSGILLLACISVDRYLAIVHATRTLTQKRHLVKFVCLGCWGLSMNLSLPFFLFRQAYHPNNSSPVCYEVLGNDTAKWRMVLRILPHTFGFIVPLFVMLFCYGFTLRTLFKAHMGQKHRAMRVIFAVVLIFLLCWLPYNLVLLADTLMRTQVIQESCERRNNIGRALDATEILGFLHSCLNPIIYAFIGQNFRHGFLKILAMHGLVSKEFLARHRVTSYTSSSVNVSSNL

[3] = DRUGMATRIX: Imidazoline I2, Central radioligand binding (ligand: [3H] Idazoxan); format: cell membranes, Rattus norvegicus, Wistar, Cerebral cortex, Membrane; conditions: Not Active = under 50% inhibition at 10 µM
[4] = target: Insulin receptor (Rattus norvegicus, UniProt P15127); format: cell membranes, Wistar, Liver, Membrane; also: in other assays of this panel Not Active means under 50% inhibition at 10 µM
Sequence of Insulin receptor (P15127 27-759 limits assumed): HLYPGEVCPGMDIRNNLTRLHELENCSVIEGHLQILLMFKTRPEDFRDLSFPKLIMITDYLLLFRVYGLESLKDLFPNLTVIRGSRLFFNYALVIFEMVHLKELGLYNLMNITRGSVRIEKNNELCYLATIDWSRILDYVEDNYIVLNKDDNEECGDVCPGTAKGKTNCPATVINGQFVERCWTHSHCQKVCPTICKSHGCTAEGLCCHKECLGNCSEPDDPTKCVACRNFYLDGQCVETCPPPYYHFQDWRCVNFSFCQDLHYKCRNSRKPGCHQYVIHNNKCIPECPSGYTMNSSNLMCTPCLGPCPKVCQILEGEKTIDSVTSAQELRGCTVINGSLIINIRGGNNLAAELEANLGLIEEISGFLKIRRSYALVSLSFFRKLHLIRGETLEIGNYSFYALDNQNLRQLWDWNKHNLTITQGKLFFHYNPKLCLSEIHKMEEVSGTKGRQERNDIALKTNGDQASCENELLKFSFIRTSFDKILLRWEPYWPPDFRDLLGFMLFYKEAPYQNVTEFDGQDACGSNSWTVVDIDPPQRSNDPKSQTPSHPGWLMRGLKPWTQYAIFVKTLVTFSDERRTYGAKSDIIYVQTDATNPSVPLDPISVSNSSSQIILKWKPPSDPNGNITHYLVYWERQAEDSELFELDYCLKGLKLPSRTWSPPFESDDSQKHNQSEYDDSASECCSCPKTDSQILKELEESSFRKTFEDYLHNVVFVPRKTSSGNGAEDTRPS
Sequence of Insulin receptor (P15127 764-1383 limits assumed): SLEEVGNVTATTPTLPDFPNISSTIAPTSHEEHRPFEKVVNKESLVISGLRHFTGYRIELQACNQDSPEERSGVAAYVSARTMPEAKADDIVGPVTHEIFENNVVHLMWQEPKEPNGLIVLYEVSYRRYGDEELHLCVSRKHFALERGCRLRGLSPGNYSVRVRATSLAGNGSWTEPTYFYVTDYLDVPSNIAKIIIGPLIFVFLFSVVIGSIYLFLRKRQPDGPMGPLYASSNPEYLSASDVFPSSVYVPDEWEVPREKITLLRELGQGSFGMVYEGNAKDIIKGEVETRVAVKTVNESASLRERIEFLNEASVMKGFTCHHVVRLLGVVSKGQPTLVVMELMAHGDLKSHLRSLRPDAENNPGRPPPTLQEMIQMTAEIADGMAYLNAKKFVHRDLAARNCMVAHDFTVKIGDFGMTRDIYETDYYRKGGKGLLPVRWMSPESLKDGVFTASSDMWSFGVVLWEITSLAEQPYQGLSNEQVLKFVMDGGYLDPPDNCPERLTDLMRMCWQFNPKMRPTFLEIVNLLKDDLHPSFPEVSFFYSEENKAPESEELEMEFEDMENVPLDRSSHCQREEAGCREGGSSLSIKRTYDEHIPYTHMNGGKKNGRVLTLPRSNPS

[5] = target: Nitric oxide synthase 1 (Rattus norvegicus, UniProt P29476); format: tissue-based, Cerebellum; also: in other assays of this panel Not Active means under 50% inhibition at 10 µM
Sequence of Nitric oxide synthase 1 (P29476 whole entry): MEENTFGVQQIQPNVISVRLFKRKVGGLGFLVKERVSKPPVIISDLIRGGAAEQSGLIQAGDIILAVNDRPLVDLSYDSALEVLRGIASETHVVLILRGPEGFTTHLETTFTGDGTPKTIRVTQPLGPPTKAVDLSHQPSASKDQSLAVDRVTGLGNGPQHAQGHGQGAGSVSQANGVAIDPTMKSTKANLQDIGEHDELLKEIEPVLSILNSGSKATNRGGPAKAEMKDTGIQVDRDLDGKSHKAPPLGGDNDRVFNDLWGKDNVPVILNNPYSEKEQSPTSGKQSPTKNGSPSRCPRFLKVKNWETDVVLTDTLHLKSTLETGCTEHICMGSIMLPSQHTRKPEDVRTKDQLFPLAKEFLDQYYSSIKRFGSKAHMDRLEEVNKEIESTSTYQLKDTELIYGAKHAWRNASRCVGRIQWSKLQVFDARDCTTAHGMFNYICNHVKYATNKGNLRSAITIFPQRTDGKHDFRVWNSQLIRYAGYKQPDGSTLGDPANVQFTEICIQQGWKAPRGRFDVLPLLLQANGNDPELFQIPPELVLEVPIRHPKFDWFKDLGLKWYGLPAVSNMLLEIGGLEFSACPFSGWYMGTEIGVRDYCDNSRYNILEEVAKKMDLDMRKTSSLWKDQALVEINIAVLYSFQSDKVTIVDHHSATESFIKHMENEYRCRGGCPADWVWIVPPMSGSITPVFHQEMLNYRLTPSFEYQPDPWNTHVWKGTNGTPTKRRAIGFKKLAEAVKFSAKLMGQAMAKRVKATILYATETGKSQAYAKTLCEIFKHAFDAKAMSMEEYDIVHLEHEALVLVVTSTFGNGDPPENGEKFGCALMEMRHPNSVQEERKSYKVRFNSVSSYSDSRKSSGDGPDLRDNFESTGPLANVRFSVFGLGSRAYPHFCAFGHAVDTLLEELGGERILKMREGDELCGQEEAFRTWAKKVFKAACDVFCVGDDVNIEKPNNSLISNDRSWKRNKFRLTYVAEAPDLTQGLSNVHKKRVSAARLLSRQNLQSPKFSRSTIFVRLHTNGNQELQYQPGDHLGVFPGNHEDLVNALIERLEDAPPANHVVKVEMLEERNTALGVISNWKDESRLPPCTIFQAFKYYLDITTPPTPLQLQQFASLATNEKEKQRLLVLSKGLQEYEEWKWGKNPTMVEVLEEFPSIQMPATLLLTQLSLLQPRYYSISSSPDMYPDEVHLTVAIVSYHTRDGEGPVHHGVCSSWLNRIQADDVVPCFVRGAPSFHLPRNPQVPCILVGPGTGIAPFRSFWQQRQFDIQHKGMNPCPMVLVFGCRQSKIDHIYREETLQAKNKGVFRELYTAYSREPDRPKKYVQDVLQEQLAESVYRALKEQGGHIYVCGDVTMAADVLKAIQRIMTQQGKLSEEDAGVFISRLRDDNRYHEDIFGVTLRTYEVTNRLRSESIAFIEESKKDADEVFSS

[6] = DRUGMATRIX: Potassium Channel [KATP] radioligand binding (ligand: [3H] Glyburide); format: cell membranes, Membrane; conditions: hit-t15, Not Active = under 50% inhibition at 10 µM
[7] = target: Voltage-gated inwardly rectifying potassium channel KCNH2 (Homo sapiens, UniProt Q12809); conditions: hek293; also: in other assays of this panel Not Active means under 50% inhibition at 10 µM
Sequence of Voltage-gated inwardly rectifying potassium channel KCNH2 (Q12809 whole entry): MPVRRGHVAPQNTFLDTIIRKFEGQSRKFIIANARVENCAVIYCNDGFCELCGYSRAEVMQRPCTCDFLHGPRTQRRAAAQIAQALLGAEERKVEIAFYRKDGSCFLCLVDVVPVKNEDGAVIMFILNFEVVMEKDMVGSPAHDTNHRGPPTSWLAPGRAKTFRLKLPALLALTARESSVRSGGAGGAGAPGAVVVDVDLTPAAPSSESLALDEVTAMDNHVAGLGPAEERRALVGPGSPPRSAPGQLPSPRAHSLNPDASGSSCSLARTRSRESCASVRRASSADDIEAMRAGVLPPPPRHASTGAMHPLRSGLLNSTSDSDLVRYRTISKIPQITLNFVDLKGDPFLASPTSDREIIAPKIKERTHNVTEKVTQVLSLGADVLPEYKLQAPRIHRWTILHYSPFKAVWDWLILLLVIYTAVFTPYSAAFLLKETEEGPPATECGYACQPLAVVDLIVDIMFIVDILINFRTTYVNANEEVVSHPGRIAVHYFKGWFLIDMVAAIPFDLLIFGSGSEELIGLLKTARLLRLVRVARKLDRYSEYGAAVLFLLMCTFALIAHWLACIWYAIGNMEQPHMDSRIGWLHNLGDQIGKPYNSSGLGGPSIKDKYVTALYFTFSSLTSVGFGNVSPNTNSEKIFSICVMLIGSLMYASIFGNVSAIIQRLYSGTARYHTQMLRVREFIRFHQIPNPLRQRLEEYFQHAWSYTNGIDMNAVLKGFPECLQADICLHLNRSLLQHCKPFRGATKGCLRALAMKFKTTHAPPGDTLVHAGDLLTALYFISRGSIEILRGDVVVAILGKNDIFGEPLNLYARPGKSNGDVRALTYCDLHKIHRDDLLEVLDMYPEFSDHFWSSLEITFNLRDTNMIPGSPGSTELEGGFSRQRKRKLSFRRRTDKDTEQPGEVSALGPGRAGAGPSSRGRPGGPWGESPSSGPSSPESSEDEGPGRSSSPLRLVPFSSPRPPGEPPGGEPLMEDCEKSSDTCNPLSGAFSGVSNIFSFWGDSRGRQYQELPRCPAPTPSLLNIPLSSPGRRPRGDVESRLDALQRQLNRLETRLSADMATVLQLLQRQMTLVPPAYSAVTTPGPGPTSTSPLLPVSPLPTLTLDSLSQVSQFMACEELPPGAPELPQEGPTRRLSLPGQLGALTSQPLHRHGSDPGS

Sequence of Substance-P receptor (P25103 whole entry): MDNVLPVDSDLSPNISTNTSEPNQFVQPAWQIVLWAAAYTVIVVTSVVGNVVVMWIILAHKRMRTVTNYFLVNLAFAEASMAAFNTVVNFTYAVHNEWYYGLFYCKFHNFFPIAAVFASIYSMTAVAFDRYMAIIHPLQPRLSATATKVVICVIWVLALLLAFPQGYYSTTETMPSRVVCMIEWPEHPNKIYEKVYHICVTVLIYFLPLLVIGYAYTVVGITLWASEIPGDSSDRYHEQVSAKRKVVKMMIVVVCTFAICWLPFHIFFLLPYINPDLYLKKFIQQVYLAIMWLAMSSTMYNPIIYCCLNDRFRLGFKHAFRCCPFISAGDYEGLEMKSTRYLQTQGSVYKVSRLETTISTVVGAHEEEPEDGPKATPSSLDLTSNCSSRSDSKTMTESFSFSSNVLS

Structure (SMILES) | IC50 [1] | IC50 [2] | IC50 [3] | Ki [3] | IC50 [4] | IC50 [5] | IC50 [6] | Ki [6] | IC50 [7] | Ki [7] | IC50 ([3]; read-out: IC50) | Ki ([3]; read-out: Ki) | IC50 ([6]; read-out: IC50) | Ki ([6]; read-out: Ki)
O=C(O)c1cc(-c2ccc(F)cc2F)ccc1O [DIFLUNISAL] | Not Active | Not Active | Not Active | Not Active | Not Active | Not Active | Not Active | Not Active | Not Active | Not Active |  |  |  | 
CCn1cc(C(=O)O)c(=O)c2cc(F)c(N3CCNC(C)C3)c(F)c21 (stereo unspecified) [LOMEFLOXACIN] | Not Active | Not Active | Not Active | Not Active | Not Active | Not Active |  |  |  |  |  |  |  | 
CN(C)C(=O)Oc1cccc([N+](C)(C)C)c1.[Br-] [NEOSTIGMINE BROMIDE] | Not Active | Not Active | Not Active | Not Active | Not Active | Not Active | Not Active | Not Active | Not Active | Not Active |  |  |  | 
CN1CCCC(CN2c3ccccc3Sc3ccccc32)C1 (stereo unspecified) [MEPAZINE] | Not Active | Not Active | Not Active | Not Active | Not Active | Not Active | Not Active | Not Active | Not Active | Not Active |  |  |  | 
ClC(Cl)(Cl)Cl [CARBON TETRACHLORIDE] | Not Active | Not Active | Not Active | Not Active | Not Active | Not Active | Not Active | Not Active | Not Active | Not Active |  |  |  | 
CCN(CC)CCCC(C)Nc1c2ccc(Cl)cc2nc2ccc(OC)cc12 (stereo unspecified) [QUINACRINE] | Not Active | Not Active |  |  | Not Active | Not Active | Not Active | Not Active | Not Active | Not Active | 1520 nM | 1010 nM |  | 
CC[C@H]1[C@@H]2C[C@H]3[C@@H]4N(C)c5ccccc5[C@]45C[C@@H]([C@@H]2[C@H]5O)N3[C@@H]1O [AJMALINE] | Not Active | Not Active | Not Active | Not Active | Not Active | Not Active | Not Active | Not Active | Not Active | Not Active |  |  |  | 
C[C@H]1[C@H](NC(=O)/C(=N\OC(C)(C)C(=O)O)c2csc(N)n2)C(=O)N1S(=O)(=O)O [AZTREONAM] | Not Active | Not Active | Not Active | Not Active | Not Active | Not Active | Not Active | Not Active | Not Active | Not Active |  |  |  | 
CO/N=C(\C(=O)N[C@@H]1C(=O)N2C(C(=O)O)=C(COC(C)=O)CS[C@H]12)c1csc(N)n1 [CEFOTAXIME] | Not Active | Not Active | Not Active | Not Active | Not Active | Not Active | Not Active | Not Active | Not Active | Not Active |  |  |  | 
CC(C)c1c(C(=O)Nc2ccccc2)c(-c2ccccc2)c(-c2ccc(F)cc2)n1CC[C@@H](O)C[C@@H](O)CC(=O)O [ATORVASTATIN] | Not Active | Not Active | Not Active | Not Active | Not Active | Not Active | Not Active | Not Active |  |  |  |  |  | 
CC(C)C[C@H]1C(=O)N2CCC[C@H]2[C@]2(O)O[C@](NC(=O)[C@@H]3C=C4c5cccc6[nH]cc(c56)C[C@H]4N(C)C3)(C(C)C)C(=O)N12 [ERGOCRYPTINE] | Not Active | Not Active |  |  | Not Active | Not Active | Not Active | Not Active | Not Active | Not Active | 3.28 nM | 2.19 nM |  | 
CCN(C(C)=O)c1cccc(-c2ccnc3c(C#N)cnn23)c1 [ZALEPLON] | Not Active | Not Active | Not Active | Not Active | Not Active | Not Active | Not Active | Not Active | Not Active | Not Active |  |  |  | 
N[C@@H](Cn1ccc(=O)c(O)c1)C(=O)O [L-MIMOSINE] | Not Active | Not Active | Not Active | Not Active | Not Active | Not Active | Not Active | Not Active | Not Active | Not Active |  |  |  | 
Nc1cc(-c2ccncc2)c[nH]c1=O [INAMRINONE] | Not Active | Not Active | Not Active | Not Active | Not Active | Not Active | Not Active | Not Active | Not Active | Not Active |  |  |  | 
NC(=O)c1cccc(N)c1 [3-AMINOBENZAMIDE] | Not Active | Not Active | Not Active | Not Active | Not Active | Not Active | Not Active | Not Active | Not Active | Not Active |  |  |  | 
NC(=O)c1cccnc1 [NIACINAMIDE] | Not Active | Not Active | Not Active | Not Active | Not Active | Not Active | Not Active | Not Active | Not Active | Not Active |  |  |  | 
CCC1=C(C)CN(C(=O)NCCc2ccc(S(=O)(=O)NC(=O)N[C@H]3CC[C@H](C)CC3)cc2)C1=O [GLIMEPIRIDE] | Not Active | Not Active | Not Active | Not Active | Not Active | Not Active |  |  | Not Active | Not Active |  |  | 100 nM | 11 nM
CC(C)NCC(O)c1ccccc1Cl (stereo unspecified) [CLORPRENALINE] | Not Active | Not Active | Not Active | Not Active | Not Active | Not Active | Not Active | Not Active | Not Active | Not Active |  |  |  | 
CC(=O)OCC(=O)[C@@]12OC(C)(C)O[C@@H]1C[C@H]1[C@@H]3C[C@H](F)C4=CC(=O)C=C[C@]4(C)[C@@]3(F)[C@@H](O)C[C@@]12C [FLUOCINONIDE] | Not Active | Not Active | Not Active | Not Active | Not Active | Not Active | Not Active | Not Active | Not Active | Not Active |  |  |  | 
COc1cccc2c1C(=O)c1c(O)c3c(c(O)c1C2=O)C[C@@](O)(C(C)=O)C[C@@H]3O[C@H]1C[C@H](N)[C@H](O)[C@H](C)O1 [DAUNORUBICIN] | Not Active | Not Active | Not Active | Not Active | Not Active | Not Active | Not Active | Not Active | Not Active | Not Active |  |  |  | 
COc1ccccc1N | Not Active | Not Active | Not Active | Not Active | Not Active | Not Active | Not Active | Not Active | Not Active | Not Active |  |  |  | 
CC[C@]1(O)C[C@@H]2CN(CCc3c([nH]c4ccccc34)[C@@](C(=O)OC)(c3cc4c(cc3OC)N(C)[C@H]3[C@@](O)(C(N)=O)[C@H](O)[C@]5(CC)C=CCN6CC[C@]43[C@@H]65)C2)C1 [VINDESINE] | Not Active | Not Active | Not Active | Not Active | Not Active | Not Active | Not Active | Not Active | Not Active | Not Active |  |  |  | 
CCOc1nc2cccc(C(=O)O)c2n1Cc1ccc(-c2ccccc2-c2nnn[nH]2)cc1 | Not Active | Not Active | Not Active | Not Active | Not Active | Not Active | Not Active | Not Active | Not Active | Not Active |  |  |  | 
C#C[C@]1(O)CC[C@H]2[C@@H]3CCC4=CC(=O)CC[C@]4(C)[C@H]3CC[C@@]21C [ETHISTERONE] | Not Active | Not Active | Not Active | Not Active | Not Active | Not Active | Not Active | Not Active |  |  |  |  |  | 
N=C(N)c1ccc(OCCCCCOc2ccc(C(=N)N)cc2)cc1 [PENTAMIDINE] | Not Active | Not Active |  |  | Not Active | Not Active | Not Active | Not Active |  |  | 3520 nM | 2350 nM |  | 
CC(C)(C(=O)O)c1ccc(C(O)CCCN2CCC(C(O)(c3ccccc3)c3ccccc3)CC2)cc1 (stereo unspecified) [FEXOFENADINE] | Not Active | Not Active | Not Active | Not Active | Not Active | Not Active | Not Active | Not Active |  |  |  |  |  | 
CN(C)CCC=C1c2ccccc2CCc2ccccc21 [AMITRIPTYLINE] | Not Active | Not Active |  |  | Not Active | Not Active | Not Active | Not Active |  |  | 1680 nM | 1120 nM |  | 
